{"source": "patent US7807162B2", "about": "“Single domain VHH antibodies against von Willebrand factor” (Ablynx N.V., priority 2005, dated 2010)", "key": {"[1]": {"system": "cyclic flow reductions (CFRs) in injured, stenosed femoral artery", "experiment": "Use of vWF as an antidote for ALX-0081 in the baboon Folts model", "type": "in vivo, baboon (Papio ursinus)", "from_the_text": "The experimental procedure followed the original Folts model with the modifications as described in the previous example 18.\nHealthy male baboons (Papio ursinus) were used in this study. The animals were 9-12 kg of weight and were disease-free for at least 2 weeks prior to use. The baboons were fed with dry standard food only."}, "[2]": {"system": "cyclic flow reductions (CFRs) in injured, stenosed femoral artery", "experiment": "Folts thrombosis model in baboons: length/inhibition of cyclic flow reductions (CFRs)", "type": "in vivo, baboon (Papio ursinus)", "details": "for effective dose: Folts model; for CFRs upon a new injury: new injury applied at full inhibition of CFRs; for Inhibition of CFRs / Inhibition of CFRs after administration of Epinephrin / Inhibition of CFRs after new injury: number of experiments with inhibition / total number of independent repeats", "description": "The study protocol that was applied is the original Folts model and some modifications described below (Folts J D, et al, Circulation. 1976; 54:365-370). Healthy male or female baboons (Papio ursinus) were used. The animals were 8-17 kg of weight and were disease-free for at least 2 weeks prior to use. The baboons were fed with dry standard food only. The baboons were used at different time points. […] Animals were anaesthetized and body temperature is maintained at 37° C. with a heating table. A segment of a femoral artery was dissected free from surrounding tissue. A shunt was placed between the femoral vein and femoral artery to obtain high shear rates. The mean and phasic blood flow was recorded continuously throughout the experiment. Baseline flow was recorded for 20 minutes. […] A clamp was placed over the injured site to create an external stenosis. A gradual decline in blood flow due to platelet adhesion and aggregation was observed. When flow was reduced to zero, blood flow was restored by opening the clamp to dislodge the platelet-rich thrombus. This repetitive pattern of decreasing blood flow following mechanical restoration is referred to as cyclic flow reductions (CFRs). Additional endothelial injury was repeated if needed to finally obtain stable CFRs in these baboons. The number of times the thrombus needed to be dislodged determines the number of CFRs. FIG. 24 illustrates blood flow pattern during the Folts model in baboons. […] This procedure was repeated for several times with escalating doses of the test substance. The anti-thrombotic effect was quantified by comparing the length of CFRs before and after drug administration. When full inhibition of CFRs was observed, a new injury was applied in order to confirm that the inhibition was an effect of the treatment but not of a natural healing phenomenon."}, "[3]": {"experiment": "Bleeding analysis in Folts baboons (blood loss in gauzes)", "details": "for therapeutic window in the Folts model: antithrombotic effect versus blood loss; for Average of total blood loss: sum of blood loss from the first five doses of test compound, relative to the second control gauze", "protocol": "To analyze bleeding, an incision was made with a scalpel in the groin. This was done at 15 minutes after recording baseline flow, when the injury was made in the artery. Gauzes were inserted in the wound and replaced every 30 minutes just before each new dose of test compound. The amount of blood loss after each dose of test compound was determined by weighing the gauzes."}, "ADAMTS-13": {"system": "ADAMTS-13", "experiment": "Cleavage of recombinant A1-A2-A3 vWF fragment by ADAMTS-13 (Western Blot)", "type": "biochemical, human", "details": "control; EDTA in NPP", "description": "In a second type of experiment, different reaction mixtures were prepared as summarized in table 60, however, without the addition of the A1A2A3 construct. The A1A2A3 construct is a recombinant fragment consisting out of the A1, A2 and A3 domain of vWF. Mixtures were pre-incubated for 5 minutes at 37° C. after which the A1A2A3 fragment is added and the mixture is incubated in a waterbath overnight at 37° C. […] The blot was blocked for 2 hours at room temperature with blockbuffer (1:1 Odyssey blockbuffer in 1×TBS pH=7.4) and incubated with Rabbit polyclonal anti-vWF (DAKO). Alexa Fluor 680 goat anti-rabbit was used for detection. Scanning was done on the ODYSSEY to detect the degradation products.\nIn a second assay, a recombinant fragment containing the A1-A2-A3 domain of vWF was mixed with normal pool plasma (NPP) containing ADAMTS-13, resulting in proteolytic cleavage of the fragment which was observed by a Western Blot analysis."}, "[4]": {"system": "ristocetin-induced platelet aggregation", "experiment": "Ristocetin-induced platelet aggregation (RIPA) ex vivo in blood of treated baboons", "details": "baboons 4-10; further +1 mg/kg Plavix on top of 5 mg/kg Aspegic + 60 IU/kg Heparin + 1 mg/kg Plavix", "protocol": "Platelet aggregations were performed on a Chronolog whole blood and optical Aggregometer (Model 560CA, Chronolog, USA). PRP was prepared (collected on 0.38 mol/L citrate), by centrifuging the whole blood at 1200 rpm for 5 minutes. The upper fraction containing the PRP was carefully removed. The lower fraction was further centrifuged at 3000 rpm for 10 minutes to prepare platelet poor plasma (PPP). Platelets were counted in PRP and diluted in PPP to a final concentration of 200.000 platelets per microliter. 3 mg/ml ristocetin (DAKO) was added and aggregation was measured.\nThe GPIb-IX-V dependent platelet aggregation through vWF is measured using ristocetin as a modulator. The % aggregation is measured at each time point and at each dose."}, "[5]": {"system": "cyclic flow reductions (CFRs) in injured, stenosed femoral artery", "experiment": "Folts model in baboons: Aspegic-Heparin-Plavix combination with ALX-0081 on top", "type": "in vivo, baboon (Papio ursinus)", "details": "combined with 5 mg/kg Aspirin and 60 IU/kg Heparin", "description": "Extra Heparin was administered at different time points to sustain a certain level (aPTT should be at least doubled versus control). […] The anti-thrombotic effect was quantified by comparing the length of CFRs before and after drug administration. When full inhibition of CFRs was observed, a new injury was applied. Epinephrin was injected and continued till the end of the experiment. […] (1), 3, 10 or 30 μg/kg. […] The specifications of the baboons that were used in this study are represented in table 49."}, "[6]": {"system": "platelet adhesion to collagen type III", "experiment": "Inhibition of platelet adhesion by nanobodies in a flow (perfusion) chamber", "type": "cell-based, human", "details": "Table 41", "description": "The protein samples were analysed in a perfusion chamber. Thermanox coverslips (Nunc) were soaked overnight in 80% ethanol, rinsed thoroughly with distilled water and air-dried. Human placental collagen type III (Sigma) was solubilized in 0.05 mol/l acetic acid and sprayed on the coverslips at a final density of 30 μg/cm^2 with a retouching airbrush. After spraying the coverslips were blocked with 1% human albumin solution in PBS for at least 1 hour at RT. Perfusions were performed with a single-pass perfusion chamber under non-pulsatile flow conditions using a modified small perfusion chamber with a slit height of 0.1 mm and a slit width of 2 mm. Blood was obtained by venipuncture from healthy volunteers and anti-coagulated with Penta/PPACK. Triplicate coverslips were inserted into the chamber. […] After a perfusion run, the coverslip was taken from the chamber, rinsed in Hepes buffered saline (10 mM Hepes, 150 mM NaCL, ph 7.4), fixed in 0.5% glutaraldehyde in PBS, dehydrated in methanol and stained with May-Grünwald and Giemsa (Riedel de Haën). Platelet deposition was evaluated as platelet surface coverage using light microscopy and computer-assisted analysis."}, "[7]": {"details": "Plavix final dose 2.5 mg/kg, individual baboons 9-12, 2.5 mg/kg"}}, "note": "“And” between values parts separate entries of the source, which are not always exact repeats. Equal entries are not always repeated."}
{"molecule": "vWF: vWF evaluated as an antidote for ALX-0081", "values": [{"measurement": "reversal of the activity of ALX-0081 on CFRs", "setting": "[1]; CFRs returned after 250 IU plus extra 250 IU of vWF", "value": "can be reversed by administration of vWF"}, {"measurement": "Length of CFRs", "setting": "[1]; second 250 IU vWF after 30 μg/kg + 45 μg/kg/hour ALX-0081, baboons 1-3", "value": "246 s and 256 s and 230 s"}]}
{"molecule": "Reopro: drug currently used in the clinic, comparator in the Folts model", "values": [{"measurement": "effective dose", "setting": "[2]", "value": 0.25, "unit": "mg/kg"}, {"measurement": "effective dose", "setting": "[2]; inhibition of CFRs, final dose, ALX-0081: + […] dose/kg/hour", "value": "0.17 to 0.42", "unit": "mg/kg"}, {"measurement": "Length of CFRs", "setting": "[2]; Reopro final dose 20 μg/kg, individual baboons 13, 14, 15", "value": "98 s and 82 s and 254 s"}, {"measurement": "Length of CFRs", "setting": "[2]; Reopro final dose 70 μg/kg, individual baboons 13, 14, 15", "value": "90 s (2×) and 248 s"}, {"measurement": "Length of CFRs", "setting": "[2]; Reopro final dose 170 μg/kg, individual baboons 13, 14, 15", "value": "90 s and >1800 s (2×)"}, {"measurement": "Length of CFRs", "setting": "[2]; Reopro final dose 420 μg/kg, individual baboons 13, 14, 15", "value": ">1800", "unit": "s"}, {"measurement": "Length of CFRs", "setting": "[2]; Reopro final dose 920 μg/kg, individual baboons 13, 14, 15", "value": ">1800", "unit": "s"}, {"measurement": "Length of CFRs", "setting": "[2]; Reopro-treated, after Epinephrin, individual baboons 13, 14, 15", "value": ">1200", "unit": "s"}, {"measurement": "final dose needed for full inhibition of the CFRs", "setting": "[2]; baboons 13, 14 and 15, bolus injection only", "value": "0.17 to 0.42", "unit": "mg/kg"}, {"measurement": "CFRs upon a new injury", "setting": "[2]", "value": "complete inhibition of the CFRs was retained"}, {"measurement": "Inhibition of CFRs", "setting": "[2]", "value": "3/3"}, {"measurement": "Inhibition of CFRs after administration of Epinephrin", "setting": "[2]", "value": "3/3"}, {"measurement": "Inhibition of CFRs after new injury", "setting": "[2]", "value": "3/3"}, {"measurement": "therapeutic window in the Folts model", "setting": "[3]", "value": "much more narrow"}, {"measurement": "Average of total blood loss", "setting": "[3]", "value": 44}]}
{"molecule": "O=C(O)CN(CCN(CC(=O)O)CC(=O)O)CC(=O)O", "note": "[EDTA]", "values": [{"measurement": "effect on the cleavage of the A1-A2-A3 vWF fragment by ADAMTS-13", "setting": "ADAMTS-13", "value": "inhibition of cleavage of the fragment"}]}
{"molecule": "COC(=O)[C@H](c1ccccc1Cl)N1CCc2sccc2C1", "note": "[Plavix]", "values": [{"measurement": "time after injection at which the inhibitory effect on CFR length started", "setting": "[2]; 2.5 mg/kg final dose", "value": 10, "unit": "min"}, {"measurement": "effective dose", "setting": "[2]", "value": 5, "unit": "mg/kg"}, {"measurement": "effective dose", "setting": "[2]; inhibition of CFRs", "value": 5, "unit": "mg/kg"}, {"measurement": "Length of CFRs", "setting": "[2]; Plavix final dose 1 mg/kg, individual baboons 9, 11, 12, 1 mg/kg", "value": "189 s and 132 s and 179 s"}, {"measurement": "Length of CFRs", "setting": "[2]; [7]", "value": "883 s and 400 s and 258 s and >1800 s"}, {"measurement": "Length of CFRs", "setting": "[2]; Plavix final dose 5 mg/kg, individual baboons 9-12", "value": ">1800", "unit": "s"}, {"measurement": "Length of CFRs", "setting": "[2]; Plavix final dose 10 mg/kg, individual baboons 9-12", "value": ">1800", "unit": "s"}, {"measurement": "Length of CFRs", "setting": "[2]; Plavix final dose 20 mg/kg, individual baboons 9-12", "value": ">1800", "unit": "s"}, {"measurement": "Length of CFRs", "setting": "[2]; Plavix-treated, after Epinephrin, individual baboons 9-12", "value": "241 s and 91 s and 83 s and 66 s"}, {"measurement": "final dose at which full inhibition of CFRs was obtained", "setting": "[2]; baboon 12", "value": 2.5, "unit": "mg/kg"}, {"measurement": "CFRs upon a new injury", "setting": "[2]", "value": "CFRs remained inhibited"}, {"measurement": "Inhibition of CFRs", "setting": "[2]", "value": "4/4"}, {"measurement": "Inhibition of CFRs after administration of Epinephrin", "setting": "[2]", "value": "0/4"}, {"measurement": "Inhibition of CFRs after new injury", "setting": "[2]", "value": "4/4"}, {"measurement": "final dose at which full inhibition of CFRs was obtained", "setting": "[2]; the other three baboons", "value": 5, "unit": "mg/kg"}, {"measurement": "Blood loss relative to the second control gauze, Average", "setting": "[3]; Plavix final dose 1 mg/kg", "value": 1.4}, {"measurement": "Blood loss relative to the second control gauze", "setting": "[3]; Plavix final dose 1 mg/kg, individual baboons 9-12, 1 mg/kg", "value": "0.6 and 1.3 and 1.6 and 1.2"}, {"measurement": "Blood loss relative to the second control gauze, Average", "setting": "[3]; Plavix final dose 2.5 mg/kg", "value": 1.2}, {"measurement": "Blood loss relative to the second control gauze", "setting": "[3]; [7]", "value": "1.5 and 1.4 and 1.1 and 1.0"}, {"measurement": "Blood loss relative to the second control gauze, Average", "setting": "[3]; Plavix final dose 5 mg/kg", "value": 4.5}, {"measurement": "Blood loss relative to the second control gauze", "setting": "[3]; Plavix final dose 5 mg/kg, individual baboons 9-12, 5 mg/kg", "value": "5.1 and 4.7 and 1.4 and 6.6"}, {"measurement": "Blood loss relative to the second control gauze, Average", "setting": "[3]; Plavix final dose 10 mg/kg", "value": 7.6}, {"measurement": "Blood loss relative to the second control gauze", "setting": "[3]; Plavix final dose 10 mg/kg, individual baboons 9-12, 10 mg/kg", "value": "6.5 and 4.5 and 5.8 and 13.6"}, {"measurement": "Blood loss relative to the second control gauze, Average", "setting": "[3]; Plavix final dose 20 mg/kg", "value": 4.9}, {"measurement": "Blood loss relative to the second control gauze", "setting": "[3]; Plavix final dose 20 mg/kg, individual baboons 9-12, 20 mg/kg", "value": "3.7 and 4.1 and 9.1 and 2.6"}, {"measurement": "therapeutic window in the Folts model", "setting": "[3]", "value": "much more narrow"}, {"measurement": "Blood loss relative to the second control gauze", "setting": "[3]; at the highest dose", "value": "up to 9 fold"}, {"measurement": "Average of total blood loss", "setting": "[3]", "value": 19.4}, {"measurement": "% ristocetin-induced platelet aggregation", "setting": "[4]", "value": "42% and 63% and 66% and 83% and 59% and 76% and 60%"}, {"measurement": "dose of Plavix required for full inhibition, fold lower than Plavix alone", "setting": "[5]", "value": 2.5, "unit": "fold"}]}
{"molecule": "12B6H2-3a-12B6H2 (protein) VHH: EVQLVESGGGLVQPGGSLRLSCAASGRTFSYNPMGWFRQAPGKGREVVAAISRTGGSTYYARSVEGRFTISRDNAKRMVYLQMNSLRAEDTAVYYCAAAGVRAEDGRVRTLPSEYNFWGQGTQVTVSSAAAEVQLVESGGGLVQPGGSLRLSCAASGRTFSYNPMGWFRQAPGKGREVVAAISRTGGSTYYARSVEGRFTISRDNAKRMVYLQMNSLRAEDTAVYYCAAAGVRAEDGRVRTLPSEYNFWGQGTQVTVSS", "values": [{"measurement": "% Platelet adhesion", "setting": "[6]; 0.3 μg/ml nanobody", "value": "30 ± 16", "unit": "%"}, {"measurement": "% Platelet adhesion", "setting": "[6]; 0.6 μg/ml nanobody", "value": "17 ± 6", "unit": "%"}]}
